The subject of test [1] is beet armyworm (Spodoptera exigua, LAPHEG) ("BAW"). Kind of test: Insecticidal test for beet armyworm, 128-well diet tray assay. In kind it is in vivo. The following applies: 168 h, 50 μg/cm^2 of test compound on artificial diet, second instar BAW larvae, 25° C., five to seven days, average of eight wells, read-out: BAW % Control (or Mortality) rating. As to the method: Insecticidal test for beet armyworm (Spodoptera exigua, LAPHEG) (“BAW”)
(§1) Bioassays on beet armyworm (BAW; Spodoptera exigua: Lepidoptera) are conducted using a 128-well diet tray assay. One to five second instar BAW larvae are placed in each well (3 mL) of the diet tray that had been previously filled with 1 mL of artificial diet to which 50 μg/cm^2 of the test compound (dissolved in 50 μL of 90:10 acetone-water mixture) had been applied (to each of eight wells) and then allowed to dry. Trays are covered with a clear self-adhesive cover, vented to allow gas exchange, and held at 25° C., 14:10 light-dark for five to seven days. Percent mortality is recorded for the larvae in each well; activity in the eight wells is then averaged.

In test [2] the test system is Cabbage Looper (Trichloplusia ni, TRIPNI) ("CL"). Kind of test: Insecticidal test for cabbage looper, 128-well diet tray assay. As to conditions: Trichoplusia ni, 168 h; 50 μg/cm^2 of test compound on artificial diet; second instar CL larvae; 25° C.; five to seven days; average of eight wells; read-out: CL % Control (or Mortality) rating. It is filed as in vivo. Here is the method: Insecticidal Test for Cabbage Looper (Trichloplusia ni, TRIPNI) (“CL”)
as §1, with “cabbage looper (CL; Trichloplusia ni:” for “beet armyworm (BAW; Spodoptera exigua:”, “CL” for “BAW”

Results on 16 compounds are retold here after patent US20230203026A1, “PESTICIDAL COMPOSITIONS AND METHODS” (CORTEVA AGRISCIENCE LLC, priority 2017, published 2023).

Each structure is given as a SMILES string.

In general, mortality refers to the share of the test organisms that died.

For the compound `Cc1ccc(C(C)C)c(N2C(=O)CS/C2=N\C(=O)NN(C)C(C)c2ccc(-c3ncn(-c4ccc(OC(F)(F)F)cc4)n3)cc2)c1` (centres unmarked) [A3, (Z)—N-(3-(2-isopropyl-5-methylphenyl)-4-oxothiazolidin-2-ylidene)-2-methyl-2-(1-(4-(1-(4-(trifluoromethoxy)phenyl)-1H-1,2,4-triazol-3-yl)phenyl)ethyl)hydrazine-1-carboxamide], the mortality at 50 µg/cm2 in test [1] and in test [2] was 50 to 100% in each case.
`Cc1ccc(C(C)C)c(N2C(=O)CS/C2=N\C(=O)NN(C)Cc2ccc(-c3ncn(-c4ccc(OC(F)(F)F)cc4)n3)cc2)c1` [A4, (Z)—N-(3-(2-isopropyl-5-methylphenyl)-4-oxothiazolidin-2-ylidene)-2-methyl-2-(4-(1-(4-(trifluoromethoxy)phenyl)-1H-1,2,4-triazol-3-yl)benzyl)hydrazine-1-carboxamide]: the mortality at 50 µg/cm2 in test [1] and in test [2] was 50 to 100% in each case.
On to `CC(NNC(=O)/N=C1\SCC(=O)N1c1cc(Cl)ccc1OC(F)(F)F)c1ccc(-c2ncn(-c3ccc(OC(F)(F)F)cc3)n2)cc1` (centres unmarked) [A5, (Z)—N-(3-(5-chloro-2-(trifluoromethoxy)phenyl)-4-oxothiazolidin-2-ylidene)-2-(1-(4-(1-(4-(trifluoromethoxy)phenyl)-1H-1,2,4-triazol-3-yl)phenyl)ethyl)hydrazine-1-carboxamide], for which the mortality at 50 µg/cm2 in test [1] and in test [2] was 50 to 100% throughout.
For the compound `Cc1ccc(OCC(F)(F)F)c(N2C(=O)CS/C2=N\C(=O)NNC(C)c2ccc(-c3ncn(-c4ccc(OC(F)(F)F)cc4)n3)cc2)c1` (centres unmarked) [A6, (Z)—N-(3-(5-Methyl-2-(2,2,2-trifluoroethoxy)phenyl)-4-oxothiazolidin-2-ylidene)-2-(1-(4-(1-(4-(trifluoromethoxy)phenyl)-1H-1,2,4-triazol-3-yl)phenyl)ethyl)hydrazine-1-carboxamide], the mortality at 50 µg/cm2 in test [1] and in test [2] was 50 to 100% each time.
As to `CC(C)c1ccc(Cl)cc1N1C(=O)CS/C1=N\C(=O)NNC(C)c1ccc(-c2ncn(-c3ccc(OC(F)(F)F)cc3)n2)cc1` (centres unmarked) [A8, (Z)—N-(3-(5-Chloro-2-isopropylphenyl)-4-oxothiazolidin-2-ylidene)-2-(1-(4-(1-(4-(trifluoromethoxy)phenyl)-1H-1,2,4-triazol-3-yl)phenyl)ethyl)hydrazine-1-carboxamide], the mortality at 50 µg/cm2 in test [1] and in test [2] was 50 to 100% each time.
For the compound `Cc1ccc(C(C)C)c(N2C(=O)CS/C2=N\C(=O)NNC(C)c2ccc(-c3ncn(-c4ccc(OC(F)(F)F)cc4)n3)cc2)c1` (centres unmarked) [A9, (Z)—N-(3-(2-Isopropyl-5-methylphenyl)-4-oxothiazolidin-2-ylidene)-2-(1-(4-(1-(4-(trifluoromethoxy)phenyl)-1H-1,2,4-triazol-3-yl)phenyl)ethyl)hydrazine-1-carboxamide], the mortality at 50 µg/cm2 in test [1] and in test [2] was 50 to 100% each time.
For the compound `CCCc1ccc(C)cc1N1C(=O)CS/C1=N\C(=O)NOCc1ccc(-c2ncn(-c3ccc(OC(F)(F)F)cc3)n2)cc1` [A10, (Z)-1-(3-(5-methyl-2-propylphenyl)-4-oxothiazolidin-2-ylidene)-3-((4-(1-(4-(trifluoromethoxy)phenyl)-1H-1,2,4-triazol-3-yl)benzyl)oxy)urea], the mortality at 50 µg/cm2 in test [1] and in test [2] was 50 to 100% throughout.
Turning to `Cc1ccc(Cl)c(N2C(=O)CS/C2=N\C(=O)NOC(C)c2ccc(-c3ncn(-c4ccc(OC(F)(F)F)cc4)n3)cc2)c1` (centres unmarked) [A11, (Z)-1-(3-(2-Chloro-5-methylphenyl)-4-oxothiazolidin-2-ylidene)-3-(1-(4-(1-(4-(trifluoromethoxy)phenyl)-1H-1,2,4-triazol-3-yl)phenyl)ethoxy)urea], the mortality at 50 µg/cm2 in test [1] and in test [2] was 50 to 100% throughout.
For `CCCc1ccc(C)cc1N1C(=O)CS/C1=N\C(=O)NOC(C)c1ccc(-c2ncn(-c3ccc(OC(F)(F)F)cc3)n2)cc1` (centres unmarked) [A12, (Z)-1-(3-(5-Methyl-2-propylphenyl)-4-oxothiazolidin-2-ylidene)-3-(1-(4-(1-(4-(trifluoromethoxy)phenyl)-1H-1,2,4-triazol-3-yl)phenyl)ethoxy)urea], the mortality at 50 µg/cm2 in test [1] and in test [2] was 50 to 100% in each case.
Take `Cc1ccc(C(F)(F)F)c(N2C(=O)CS/C2=N\C(=O)NOC(C)c2ccc(-c3ncn(-c4ccc(OC(F)(F)F)cc4)n3)cc2)c1` (centres unmarked) [A13, (Z)-1-(3-(5-Methyl-2-(trifluoromethyl)phenyl)-4-oxothiazolidin-2-ylidene)-3-(1-(4-(1-(4-(trifluoromethoxy)phenyl)-1H-1,2,4-triazol-3-yl)phenyl)ethoxy)urea]: the mortality at 50 µg/cm2 in test [1] and in test [2] was 50 to 100% each time.
Regarding `COc1ccc(C(C)C)c(N2C(=O)CS/C2=N\C(=O)NOC(C)c2ccc(-c3ncn(-c4ccc(OC(F)(F)F)cc4)n3)cc2)c1` (centres unmarked) [A14, (Z)-1-(3-(2-Isopropyl-5-methoxyphenyl)-4-oxothiazolidin-2-ylidene)-3-(1-(4-(1-(4-(trifluoromethoxy)phenyl)-1H-1,2,4-triazol-3-yl)phenyl)ethoxy)urea], the mortality at 50 µg/cm2 in test [1] and in test [2] was 50 to 100% each time.
As to `CCCc1ccc(OC)cc1N1C(=O)CS/C1=N\C(=O)NOC(C)c1ccc(-c2ncn(-c3ccc(OC(F)(F)F)cc3)n2)cc1` (centres unmarked) [A15, (Z)-1-(3-(5-Methoxy-2-propylphenyl)-4-oxothiazolidin-2-ylidene)-3-(1-(4-(1-(4-(trifluoromethoxy)phenyl)-1H-1,2,4-triazol-3-yl)phenyl)ethoxy)urea], the mortality at 50 µg/cm2 in test [1] and in test [2] was 50 to 100% in each case.
On to `COCc1ccc(C)cc1N1C(=O)CS/C1=N\C(=O)NOC(C)c1ccc(-c2ncn(-c3ccc(OC(F)(F)F)cc3)n2)cc1` (centres unmarked) [A16, (Z)-1-(3-(2-(Methoxymethyl)-5-methylphenyl)-4-oxothiazolidin-2-ylidene)-3-(1-(4-(1-(4-(trifluoromethoxy)phenyl)-1H-1,2,4-triazol-3-yl)phenyl)ethoxy)urea], for which the mortality at 50 µg/cm2 in test [1] and in test [2] was 50 to 100% in each case.
For `Cc1ccc(C(C)C)c(N2C(=O)CS/C2=N\C(=O)NOC(C)c2ccc(-c3ncn(-c4ccc(OC(F)(F)F)cc4)n3)cc2)c1` (centres unmarked) [A17, (Z)-1-(3-(2-Isopropyl-5-methylphenyl)-4-oxothiazolidin-2-ylidene)-3-(1-(4-(1-(4-(trifluoromethoxy)phenyl)-1H-1,2,4-triazol-3-yl)phenyl)ethoxy)urea], the mortality at 50 µg/cm2 in test [1] and in test [2] was 50 to 100% throughout.
For the compound `CC(C)c1ccccc1N1C(=O)CS/C1=N\C(=O)NOC(C)c1ccc(-c2ncn(-c3ccc(OC(F)(F)F)cc3)n2)cc1` (centres unmarked) [A18, (Z)-1-(3-(2-Isopropylphenyl)-4-oxothiazolidin-2-ylidene)-3-(1-(4-(1-(4-(trifluoromethoxy)phenyl)-1H-1,2,4-triazol-3-yl)phenyl)ethoxy)urea], the mortality at 50 µg/cm2 in test [1] and in test [2] was 50 to 100% in each case.
Take `Cc1ccc(OCC(F)(F)F)c(N2C(=O)CS/C2=N\C(=O)NOC(C)c2ccc(-c3ncn(-c4ccc(OC(F)(F)F)cc4)n3)cc2)c1` (centres unmarked) [A19, (Z)-1-(3-(5-Methyl-2-(2,2,2-trifluoroethoxy)phenyl)-4-oxothiazolidin-2-ylidene)-3-(1-(4-(1-(4-(trifluoromethoxy)phenyl)-1H-1,2,4-triazol-3-yl)phenyl)ethoxy)urea]: the mortality at 50 µg/cm2 in test [1] and in test [2] was 50 to 100% in each case.
